Data: patent publication US8093272B2 (priority 2004, dated 2012)

Tests used:
5-HT-uptake = test: Measurement of serotonin re-uptake in rat brain synaptosomes (P2 fraction, medulla+pons region); format: biochemical; details: synaptosomes from medulla+pons region of male rats' brains
Method: Measurement of Serotonin Re-Uptake
In order to carry out these in vitro studies, synaptosomes were freshly isolated from areas of rats' brains. In each case, what is known as a “P2” fraction, which was prepared in accordance with Gray and Whittaker's directions (E. G. Gray and V. P. Whittaker (1962) J. Anat. 76, 79-88), was used. For the 5HT-e, uptake these vesicular particles were isolated from the medulla+pons region of male rats' brains.
A detailed description of the method can be found in the literature (M. Ch. Frink, H.-H. Hennies, W. Englberger, M. Haurand and B. Wilffert (1996) Arzneim.-Forsch./Drug Res. 46 (III), 11, 1029-1036).

NA-uptake = test: Measurement of noradrenalin re-uptake in rat brain synaptosomes (P2 fraction, hypothalamus); format: biochemical; details: synaptosomes from hypothalamus of male rats' brains
Method: Measurement of Noradrenalin Re-Uptake
In order to carry out these in vitro studies, synaptosomes were freshly isolated from rat brain areas. In each case, what is known as a “P2” fraction, which was prepared in accordance with Gray and Whittaker's directions (E. G. Gray and V. P. Whittaker (1962) J. Anat. 76, 79-88), was used. For the NA-uptake, uptake these vesicular particles were isolated from the hypothalamus of male rats' brains.
A detailed description of the method can be found in the literature (M. Ch. Frink, H.-H. Hennies, W. Englberger, M. Haurand and B. Wilffert (1996) Atzneim.-Forsch./Drug Res. 46 (III), 11, 1029-1036).

SMILES	5-HT-uptake, 10 μM, % inhibition (5-HT-uptake) [%]	NA-uptake, 10 μM, % inhibition (NA-uptake) [%]
Cc1onc(-c2ccccc2Cl)c1C(=O)NC1CCC(c2cccc(F)c2)(N(C)C)CC1.Cl (single isomer, unassigned) [Example 118, 3-(2-chlorophenyl)-5-methylisoxazole-4-carboxylic acid [4-dimethyl-amino-4-(3-fluorophenyl)cyclohexyl]amide hydrochloride, non-polar diastereoisomer]	50	
Cc1onc(-c2ccccc2Cl)c1C(=O)NC1CCC(c2cccc(F)c2)(N(C)C)CC1.Cl (single isomer, unassigned) [Example 119, 3-(2-chlorophenyl)-5-methylisoxazole-4-carboxylic acid [4-dimethyl-amino-4-(3-fluorophenyl)cyclohexyl]amide hydrochloride, polar diastereoisomer]	86	59
